Measurements published in US20240115654A1, “INTRAVENOUS ADMINISTRATION OF ENGINEERED ANTIMICROBIAL AMPHIPHILIC PEPTIDES” (priority 2021, published 2024).
Where two headings read alike, the source gives them in different places. Peptide text beside a SMILES is read from it.

Details: human, in vivo
[1] = single 1-hour infusion 0.05 mg/kg, Geometric Mean
[2] = single 1-hour infusion 0.05 mg/kg, Mean
[3] = single 1-hour infusion 0.05 mg/kg, Median
[4] = single 1-hour infusion 0.05 mg/kg, individual subjects
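Also: phase 1 study in human subjects given one IV dose of the peptide, enrolled in sequential ascending-dose cohorts and randomized to peptide or placebo.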

Description: Administration was a single 1-hour infusion.
Subjects were enrolled in sequential cohorts of peptide ascending dose levels and randomly assigned to receive a single IV administration of either peptide or placebo over 1 to 2 hours. […] In addition, the infusion volume was adjusted for Cohort 4 to maintain drug concentrations in line with Cohort 2
Blood samples for PK assessment were collected at pre-dose, at the midpoint of infusion, within 1 minute after the end-of-infusion and at 0.5, 1, 2, 4, 6, 8, 12, 20, 24, 36 and 48 hours after the end-of-infusion.
The pharmaceutical composition was stored at 2° C. to 8° C. for up to 14 days and then 15° C. to 25° C. for up to 48 hours for dosing.
Subjects were enrolled in sequential cohorts of peptide ascending dose levels and randomly assigned to receive a single IV administration of either peptide or placebo over 1 to 2 hours.

With CC(C)[C@H](NC(=O)[C@H](Cc1c[nH]c2ccccc12)NC(=O)[C@H](CCCNC(=N)N)NC(=O)[C@H](CCCNC(=N)N)NC(=O)[C@@H](NC(=O)[C@@H](NC(=O)[C@H](CCCNC(=N)N)NC(=O)[C@@H](NC(=O)[C@@H](NC(=O)[C@H](CCCNC(=N)N)NC(=O)[C@H](CCCNC(=N)N)NC(=O)[C@H](Cc1c[nH]c2ccccc12)NC(=O)[C@@H](NC(=O)[C@H](CCCNC(=N)N)NC(=O)[C@H](CCCNC(=N)N)NC(=O)[C@@H](NC(=O)[C@H](CCCNC(=N)N)NC(=O)[C@H](CCCNC(=N)N)NC(=O)[C@@H](NC(=O)[C@H](Cc1c[nH]c2ccccc12)NC(=O)[C@H](CCCNC(=N)N)NC(=O)[C@@H](N)CCCNC(=N)N)C(C)C)C(C)C)C(C)C)C(C)C)C(C)C)C(C)C)C(C)C)C(=O)N[C@@H](CCCNC(=N)N)C(=O)N[C@@H](CCCNC(=N)N)C(N)=O [SEQ ID NO: 1] (H-RRWVRRVRRVWRRVVRVVRRWVRR-NH2) the clearance was 40.3 to 69.7 mL/min, the AUC(0-inf) (0.05 mg/kg, AUC0-inf, 0.05 mg/kg 1-hr infusion) was 1580 ng·h/mL and the AUC(0-t) (0.05 mg/kg, AUC0-t, 0.05 mg/kg 1-hr infusion) was 1280 ng·h/mL. It also gave an AUC(0-inf) (0.05 mg/kg, AUC0-∞) of 1580 ng·h/mL, a Cmax (0.05 mg/kg, 0.05 mg/kg 1-hr infusion) of 256 ng/mL and an AUC(0-t) (0.05 mg/kg, mean AUC0-t) of 1280 ng·h/mL. The half-life (0.05 mg/kg, t1/2, 0.05 mg/kg 1-hr infusion) was 7.4 h, the AUC(0-inf) (0.5 mg/kg, AUC0-inf, 0.5 mg/kg 2-hr infusion) was 9090 ng·h/mL and the AUC(0-t) (0.5 mg/kg, AUC0-t, 0.5 mg/kg 2-hr infusion) was 8330 ng·h/mL. The Cmax (0.5 mg/kg, 0.5 mg/kg 2-hr infusion) was 1830 ng/mL, the half-life (0.5 mg/kg, t1/2, 0.5 mg/kg 2-hr infusion) was 16.2 h and the AUC(0-inf) (1 mg/kg, AUC0-∞) was 21100 ng·h/mL. It also gave an AUC(0-t) (1 mg/kg, mean AUC0-t) of 21600 ng·h/mL, an AUC(0-t) (AUC0-24, single 1-hour infusion 0.05 mg/kg, Geometric Mean) of 1230 ng·h/mL and an AUC(0-t) (AUC0-24, single 1-hour infusion 0.05 mg/kg, Mean) of 1290 ng·h/mL. The AUC(0-t) (AUC0-24, single 1-hour infusion 0.05 mg/kg, Median) was 1350 ng·h/mL, the AUC(0-inf) (AUC0-inf, single 1-hour infusion 0.05 mg/kg, Geometric Mean) was 1600 ng·h/mL and the AUC(0-inf) (AUC0-inf, single 1-hour infusion 0.05 mg/kg, Mean) was 1610 ng·h/mL. It also gave an AUC(0-inf) (AUC0-inf, single 1-hour infusion 0.05 mg/kg, Median) of 1520 ng·h/mL, an AUC(0-inf) (AUC0-inf, single 1-hour infusion 0.05 mg/kg, individual subjects) of 1400 ng·h/mL and an AUC(0-t) (AUC0-t, single 1-hour infusion 0.05 mg/kg, Geometric Mean) of 1220 ng·h/mL. It also gave an AUC(0-t) (AUC0-t, single 1-hour infusion 0.05 mg/kg, Mean) of 1310 ng·h/mL, an AUC(0-t) (AUC0-t, single 1-hour infusion 0.05 mg/kg, Median) of 1350 ng·h/mL and a CL/F [1] of 0.522 mL/min/kg. The CL/F [2] was 0.525 mL/min/kg, the CL/F [3] was 0.548 mL/min/kg and the CL/F [4] was 0.595 mL/min/kg. It also gave a Cmax [1] of 251 ng/mL, a Cmax [2] of 256 ng/mL and a Cmax [3] of 262 ng/mL. It also gave a Tmax [1] of 1 h, a Tmax [2] of 1 h and a Tmax [3] of 1 h. The Tmax [4] was 1 h, the Tmax (single 1-hour infusion […], individual subjects) was 1 h and the half-life ([…], t1/2, […] 1-hr infusion) was 10.5 h. For the same compound, the half-life ([…], t1/2, […] 1-hr infusion (only 3 subjects)) was 19.9 h, the half-life ([…], t1/2, […] 2-hr infusion) was 13.2 h and the AUC(0-t) (iv, 0.05 mg/kg, AUC0-t, 0.05 mg/kg IV 1-hr infusion) was 1280 ng·h/mL. The AUC(0-inf) (iv, 0.05 mg/kg, AUC0-∞, 0.05 mg/kg IV 1-hr infusion) was 1580 ng·h/mL, the AUC(0-t) (iv, 0.05 mg/kg, AUC(0-24), Actual mean, Phase 1 subjects, 0.05 mg/kg IV) was 1290 ng·h/mL and the Cmax (iv, 0.05 mg/kg, 0.05 mg/kg IV 1-hr infusion) was 256 ng/mL. For the same compound, the half-life (iv, 0.05 mg/kg, t1/2, 0.05 mg/kg IV 1-hr infusion) was 7.37 h, the AUC(0-t) (iv, 0.5 mg/kg, AUC0-t, 0.5 mg/kg IV 2-hr infusion) was 8330 ng·h/mL and the AUC(0-inf) (iv, 0.5 mg/kg, AUC0-∞, 0.5 mg/kg IV 2-hr infusion) was 9090 ng·h/mL. The Cmax (iv, 0.5 mg/kg, 0.5 mg/kg IV 2-hr infusion) was 1830 ng/mL, the half-life (iv, 0.5 mg/kg, t1/2, 0.5 mg/kg IV 2-hr infusion) was 16.2 h and the AUC(0-t) (iv, 1 mg/kg, AUC0-t, 1 mg/kg IV 4-hr infusion) was 21600 ng·h/mL. For the same compound, the AUC(0-inf) (iv, 1 mg/kg, AUC0-∞, 1 mg/kg IV 4-hr infusion) was 21100 ng·h/mL, the Cmax (iv, 1 mg/kg, 1 mg/kg IV 4-hr infusion) was 2650 ng/mL and the half-life (iv, 1 mg/kg, t1/2, 1 mg/kg IV 4-hr infusion) was 20 h. It also gave an AUC(0-t) (iv, AUC0-24, Cohort 1, 0.05 mg/kg IV infusion, Geometric Mean) of 1230 ng·h/mL, an AUC(0-t) (iv, AUC0-24, Cohort 1, 0.05 mg/kg IV infusion, Mean) of 1290 ng·h/mL and an AUC(0-t) (iv, AUC0-24, Cohort 1, 0.05 mg/kg IV infusion, Median) of 1350 ng·h/mL. It also gave an AUC(0-t) (iv, AUC0-24, Cohort 1, 0.05 mg/kg IV infusion, cohort Geometric Mean) of 1230 ng·h/mL, an AUC(0-t) (iv, AUC0-24, Cohort 1, 0.05 mg/kg IV infusion, cohort Mean) of 1290 ng·h/mL and an AUC(0-t) (iv, AUC0-24, Cohort 1, 0.05 mg/kg IV infusion, cohort Median) of 1350 ng·h/mL. For the same compound, the AUC(0-t) (iv, AUC0-24, Cohort 4, 0.5 mg/kg IV infusion 2 hours, Geometric Mean) was 6930 ng·h/mL, the AUC(0-t) (iv, AUC0-24, Cohort 4, 0.5 mg/kg IV infusion 2 hours, Mean) was 7390 ng·h/mL and the AUC(0-t) (iv, AUC0-24, Cohort 4, 0.5 mg/kg IV infusion 2 hours, Median) was 7270 ng·h/mL. For the same compound, the AUC(0-t) (iv, AUC0-24, Cohort 4, 0.5 mg/kg IV, infusion 2 hours, cohort Geometric Mean) was 6930 ng·h/mL, the AUC(0-t) (iv, AUC0-24, Cohort 4, 0.5 mg/kg IV, infusion 2 hours, cohort Mean) was 7390 ng·h/mL and the AUC(0-t) (iv, AUC0-24, Cohort 4, 0.5 mg/kg IV, infusion 2 hours, cohort Median) was 7270 ng·h/mL. For the same compound, the AUC(0-t) (iv, AUC0-24, Cohort 5, 1 mg/kg IV infusion 4 hours, Geometric Mean) was 17300 ng·h/mL, the AUC(0-t) (iv, AUC0-24, Cohort 5, 1 mg/kg IV infusion 4 hours, Mean) was 18000 ng·h/mL and the AUC(0-t) (iv, AUC0-24, Cohort 5, 1 mg/kg IV infusion 4 hours, Median) was 14800 ng·h/mL. For the same compound, the AUC(0-inf) (iv, AUC0-inf, Cohort 1, 0.05 mg/kg IV infusion, Geometric Mean) was 1600 ng·h/mL, the AUC(0-inf) (iv, AUC0-inf, Cohort 1, 0.05 mg/kg IV infusion, Mean) was 1610 ng·h/mL and the AUC(0-inf) (iv, AUC0-inf, Cohort 1, 0.05 mg/kg IV infusion, Median) was 1520 ng·h/mL. For the same compound, the AUC(0-inf) (iv, AUC0-inf, Cohort 1, 0.05 mg/kg IV infusion, cohort Geometric Mean) was 1600 ng·h/mL, the AUC(0-inf) (iv, AUC0-inf, Cohort 1, 0.05 mg/kg IV infusion, cohort Mean) was 1610 ng·h/mL and the AUC(0-inf) (iv, AUC0-inf, Cohort 1, 0.05 mg/kg IV infusion, cohort Median) was 1520 ng·h/mL. For the same compound, the AUC(0-inf) (iv, AUC0-inf, Cohort 1, 0.05 mg/kg IV infusion, individual subject) was 1400 ng·h/mL, the AUC(0-inf) (iv, AUC0-inf, Cohort 1, 0.05 mg/kg IV infusion, individual subjects) was 1400 ng·h/mL and the AUC(0-inf) (iv, AUC0-inf, Cohort 4, 0.5 mg/kg IV infusion 2 hours, Geometric Mean) was 8530 ng·h/mL. It also gave an AUC(0-inf) (iv, AUC0-inf, Cohort 4, 0.5 mg/kg IV infusion 2 hours, Mean) of 9200 ng·h/mL, an AUC(0-inf) (iv, AUC0-inf, Cohort 4, 0.5 mg/kg IV infusion 2 hours, Median) of 9540 ng·h/mL and an AUC(0-inf) (iv, AUC0-inf, Cohort 4, 0.5 mg/kg IV, infusion 2 hours, cohort Geometric Mean) of 8530 ng·h/mL. The AUC(0-inf) (iv, AUC0-inf, Cohort 4, 0.5 mg/kg IV, infusion 2 hours, cohort Mean) was 9200 ng·h/mL, the AUC(0-inf) (iv, AUC0-inf, Cohort 4, 0.5 mg/kg IV, infusion 2 hours, cohort Median) was 9540 ng·h/mL and the AUC(0-inf) (iv, AUC0-inf, Cohort 5, 1 mg/kg IV infusion 4 hours, Geometric Mean) was 21100 ng·h/mL. It also gave an AUC(0-inf) (iv, AUC0-inf, Cohort 5, 1 mg/kg IV infusion 4 hours, Mean) of 21300 ng·h/mL, an AUC(0-inf) (iv, AUC0-inf, Cohort 5, 1 mg/kg IV infusion 4 hours, Median) of 21000 ng·h/mL and an AUC(0-inf) (iv, AUC0-inf, Cohort 5, 1 mg/kg IV infusion 4 hours, individual subject) of 22100 ng·h/mL. For the same compound, the AUC(0-t) (iv, AUC0-t, Cohort 1, 0.05 mg/kg IV infusion, Geometric Mean) was 1220 ng·h/mL, the AUC(0-t) (iv, AUC0-t, Cohort 1, 0.05 mg/kg IV infusion, Mean) was 1310 ng·h/mL and the AUC(0-t) (iv, AUC0-t, Cohort 1, 0.05 mg/kg IV infusion, Median) was 1350 ng·h/mL. The AUC(0-t) (iv, AUC0-t, Cohort 1, 0.05 mg/kg IV infusion, cohort Geometric Mean) was 1220 ng·h/mL, the AUC(0-t) (iv, AUC0-t, Cohort 1, 0.05 mg/kg IV infusion, cohort Mean) was 1310 ng·h/mL and the AUC(0-t) (iv, AUC0-t, Cohort 1, 0.05 mg/kg IV infusion, cohort Median) was 1350 ng·h/mL. It also gave an AUC(0-t) (iv, AUC0-t, Cohort 4, 0.5 mg/kg IV infusion 2 hours, Geometric Mean) of 7830 ng·h/mL, an AUC(0-t) (iv, AUC0-t, Cohort 4, 0.5 mg/kg IV infusion 2 hours, Mean) of 8440 ng·h/mL and an AUC(0-t) (iv, AUC0-t, Cohort 4, 0.5 mg/kg IV infusion 2 hours, Median) of 8540 ng·h/mL. The AUC(0-t) (iv, AUC0-t, Cohort 4, 0.5 mg/kg IV, infusion 2 hours, cohort Geometric Mean) was 7830 ng·h/mL, the AUC(0-t) (iv, AUC0-t, Cohort 4, 0.5 mg/kg IV, infusion 2 hours, cohort Mean) was 8440 ng·h/mL and the AUC(0-t) (iv, AUC0-t, Cohort 4, 0.5 mg/kg IV, infusion 2 hours, cohort Median) was 8540 ng·h/mL. It also gave an AUC(0-t) (iv, AUC0-t, Cohort 5, 1 mg/kg IV infusion 4 hours, Geometric Mean) of 20400 ng·h/mL, an AUC(0-t) (iv, AUC0-t, Cohort 5, 1 mg/kg IV infusion 4 hours, Mean) of 21200 ng·h/mL and an AUC(0-t) (iv, AUC0-t, Cohort 5, 1 mg/kg IV infusion 4 hours, Median) of 17600 ng·h/mL. The Cmax (iv, Cohort 1, 0.05 mg/kg IV infusion, Geometric Mean) was 251 ng/mL, the Cmax (iv, Cohort 1, 0.05 mg/kg IV infusion, Mean) was 256 ng/mL and the Cmax (iv, Cohort 1, 0.05 mg/kg IV infusion, Median) was 262 ng/mL. It also gave a Cmax (iv, Cohort 1, 0.05 mg/kg IV infusion, cohort Geometric Mean) of 251 ng/mL, a Cmax (iv, Cohort 1, 0.05 mg/kg IV infusion, cohort Mean) of 256 ng/mL and a Cmax (iv, Cohort 1, 0.05 mg/kg IV infusion, cohort Median) of 262 ng/mL. The Cmax (iv, Cohort 4, 0.5 mg/kg IV infusion 2 hours, Geometric Mean) was 1770 ng/mL and the Cmax (iv, Cohort 4, 0.5 mg/kg IV infusion 2 hours, Mean) was 1830 ng/mL.
